# Laboratory results reported in US20110217293A1, “Uses of morelloflavone” (priority 2008, published 2011).
# Entries after “also recorded” stand apart in the source; their conditions may differ.
# What was measured:
# [1] = tested on: vascular smooth muscle cells; experiment: Cell attachment; assay type: cell-based
# RhoA = experiment: GTPase activation assay, RhoA; assay type: cell-based, mouse; settings: 0.1 mM; low concentrations 0.1 & 1 mM
# Procedure: (§1) To assess the phosphorlyation status of ERK, […] of whole cell lysates was loaded onto SDS-PAGE, and Western blot analysis was done using anti-p-ERK (Santa Cruz; E-4; sc-7383) and anti-ERK (Santa Cruz; K-23; sc-94) antibodies. To detect active RhoA, Rac1 and Cdc42, generated GST-tagged RhoA binding domain of Rhotekin protein (GST-Rhotekin-RBD) and GST-tagged p21-binding domain of p21-activated kinase 1 (PAK1)(GST-PAK1-PBD) were first generated. Briefly, E. coli BL21 cells transformed with pGEX4T-PAK1-PBD or pGEX4T-Rh,otekin-RBD were grown at 37° C. and expression of recombinant protein was induced by addition of 0.1 mM IPTG for 3 hours. Cells were resuspended in lysis buffer (50 mM Tris-HCl, pH 8.0, 10% glycerol, 20% sucrose, 2 mM DTT, 1 mg/ml leupeptin, 1 mg/ml pepstatin, and 1 mg/ml aprotinin), sonicated, and centrifuged at 4° C. for 30 min at 45,000 g. The supernatant was incubated with glutathione sepharose 4B beads (GE-Amersham, Piscataway, N.J.) for 1 hour at 4° C., and then washed 3 times in lysis buffer. Using these GST-proteins, GTPase activation assays were performed as described. […]
# sPLA2-V = target: T1, sPLA2-V (Homo sapiens, UniProt P39877); experiment: sPLA2 enzyme activity assay, Group V; assay type: biochemical; settings: recombinant human sPLA2-V, data not shown
# T1 sequence (P39877 21-138): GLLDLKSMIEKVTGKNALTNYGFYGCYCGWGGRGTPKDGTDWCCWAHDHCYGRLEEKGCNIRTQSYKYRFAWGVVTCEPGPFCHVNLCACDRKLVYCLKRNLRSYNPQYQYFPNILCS
# Procedure: Recombinant human sPLA2 isoforms, Group IB, Group IIA, Group V, and Lp-PLA2 were obtained from R&D Systems and Cayman Chemical Co. sPLA2 enzyme activities in the presence of various concentrations of morelloflavone or other inhibitors were determined using a commercially available assay system according to the manufacturer's instructions (Cayman Chemical Co.). Thioetheramide-1-palmitylthio-2-palmitoylamido-1,2-dideoxy-sn-glycero-3-phosphorylcholine (T-PC) and methyl arachidonyl fluorophosphonate (MAFP) were used as inhibitors of sPLA2 (IB, IIA, and V) and Lp-PLA2, respectively, per manufacturers' instructions.
# [2] = tested on: vascular smooth muscle cells; experiment: Invasion assay (modified Boyden chamber); assay type: cell-based, mouse; settings: 1 mM morelloflavone, 8-hour incubation
# Procedure: Mouse vascular smooth muscle cells, isolated as described (13), were maintained in 231 media (Cascade Biologics, Portland, Oreg.) supplemented with SMGS (Cascade Biologics) in a humidified incubator at 37° C. with 5% CO2. Cells from passages 4-9 were used in all experiments. All experiments were performed in subconfluent, unsynchronized cells growing in SMGS except for the lamellipodium formation assay.
# The lower chambers of the ChemoTx® Disposable Chemotaxis System (NeuroProbe, Gaithersburg, Md.) were filled with […] of SMGS diluted in 231 medium at the appropriate concentrations (0-10%). A filter membrane ([…] pore size) was positioned over the lower wells, and 1×10^4 vascular smooth muscle cells suspended in […] 231 medium (without morelloflavone) were placed on the test sites within circular hydrophobic masks on the upper side of the filter plate (n=5 each). […] After additional 8-hour incubation, cells on the upper surface of the membrane, i.e., cells that had not migrated, were scraped off by Q-tips, and cells that had migrated to the lower surface were fixed and stained by hematoxylin solution and counted. Migrated cell 6 numbers were calculated as the number of cells migrated per 8.0 mm^2 test site surface area.
# Rac1 = experiment: GTPase activation assay, Rac1; assay type: cell-based, mouse; settings: up to 10 mM
# Procedure: as §1
structure (smiles),measurement,setting,value
"O=C1c2c(O)cc(O)cc2O[C@H](c2ccc(O)cc2)[C@H]1c1c(O)cc(O)c2c(=O)cc(-c3ccc(O)c(O)c3)oc12 [morelloflavone, 5,7, 4′, 5″, 7″, 3″, 4″-heptahydroxy-[3,8″]-flavonylflavanone]",effect on cell attachment,[1],does not affect cell attachment
same,activation of RhoA,RhoA,inhibited; also recorded: blocks the activation
same,IC50,sPLA2-V,> 10 µM
same,effect on vascular smooth muscle cell migration/invasion towards SMGS,[2],significantly blocked; also recorded: blocks
same,activation of Rac1,Rac1,no significant effect; also recorded: without affecting
